These results are taken from US20090274739A1, “METHODS AND COMPOSITIONS FOR TREATING NEOINTIMAL HYPERPLASIA” (THE TRUSTEES OF COLUMBIA UNIVERSITY IN THE CITY OF NEW YORK, priority 2006, published 2009).

Values joined by “and” are separate entries in the source; they are usually repeats but may differ in a detail not shown here. Identical values can stand only once. “Also recorded” adds a separate entry of the source.

Assay [1] relates to MAPK (p44/p42, ERK1/2) phosphorylation. In words: Immunoblot of MAPK (ERK1/2, p44/p42) phosphorylation in VSMC. The assay is classed as cell-based, mouse. As to the method:
(§1) Western blot analysis: The cells were plated in a 100-mm culture dish in DMEM supplemented with 20% FBS for 24 h at 37° C., followed by serum starvation for 48 h. Cells were then treated with different reagents for 30 min. Cells were subsequently lysed on ice for 30 min in RIPA buffer [150 mM NaCl, 100 mM Tris (pH 8.0), 1% Triton X-100, 1% deoxycholic acid, 0.1% SDS, 5 mM EDTA, and 10 mM NaF] supplemented with 1 mM sodium vanadate, 2 mM leupeptin, 2 mM aprotinin, 1 mM phenylmethylsulfonyl fluoride (PMSF), 1 mM DTT, and 2 mM pepstatin A. After centrifugation at 14,000 rpm for 30 min, the supernatant was harvested as the total cellular protein extract, and stored at −70° C. The protein concentration was determined using Bio-Rad protein assay reagent (Richmond, Calif.). The total cellular protein extracts were separated by SDS-polyacrylamide gel electrophoresis (SDS-PAGE) and transferred to nitrocellulose membrane in 20 mM Tris-HCl (pH 8.0) containing 150 mM glycine and 20% (v/v) methanol.
(§2) Membranes were blocked with 5% nonfat dried milk in PBS containing 0.05% Tween 20 and incubated with antibodies against phospho-(Thr^202/Tyr^204) p42/p44^MAPK and p42/p44^MAPK, phospho-Akt([…]) and anti-Akt, p70^S6K, 4EBP-1. Blots were washed three times in PBS buffer, followed by incubation with the appropriate HRP-linked IgG. The specific proteins in the blots were visualized using an enhanced chemiluminescence reagent (NEN, Boston, Mass.).
(§3) VSMC were plated on 100-mm dishes, serum starved for 72 h in DMEM containing 0.1% FBS, and stimulated with 0.6 or 6 nM (10 or 100 ng/ml) leptin. Extracts were prepared by brief sonication in HKM buffer [40 mM HEPES-KOH (pH 7.6), 7.5 mM MgCl2, 0.5 mM DTT] or, in the case of Akt phosphorylation studies, by lysing cells on ice for 30 min in RIPA buffer. 70 μg of protein per sample were subjected to immunoblotting by standards protocols. Imaging and densitometry were performed on an Odyssey infrared system (Li-Cor, Lincoln, Neb.).

Assay [2] concerns primary murine aortic vascular smooth muscle cells (VSMC). In words: VSMC proliferation assay (Coulter counter / MTS-based). Format: cell-based, mouse. As to the method:
The methods used in the above experiments were as follows: Cell Culture and VSMC Proliferation Assays. Primary VSMC were isolated from aortic explants of wildtype, ob/ob, or db/db mice in the method of Roque et al. 30. VSMC were routinely cultured in Dulbecco's Modified Eagle's Medium (DMEM) containing either 4500 or 1250 mg/L glucose supplemented with 20% FBS at 37° C. in a 5% CO2 incubator. […] Cells were plated at 200,000 cells/ well of a 6 well dish and subsequently serum starved for 72 hr in DMEM media supplemented with 0.1 % FBS. Leptin dissolved in PBS was added directly to serum-free media at concentrations of 1, 10, or 100 ng/ml with […] LY294002 or U0126, and cells were grown for another 72 hr before harvesting. VSMC proliferation was measured by counting samples using a Coulter counter or using the Cell Titre 96 Aqueous One Solution Cell Proliferation Assay kit (Promega). Cell viability was assessed by Trypan Blue staining.
Proliferation of VSMCs: VSMC proliferation was measured by counting triplicate samples using a Coulter counter or using the CellTitier 96 Aqueous One Solution Cell Proliferation Assay (Promega, Madison, Wis.) kit per manufacturer's instructions. Cell viability was assessed via staining with Trypan Blue.
Murine VSMCs (2×10^4 cells/well) were incubated in a 6-well tissue culture plate for 72 hours in DMEM containing 0.1% FBS with or without insulin (10 or 100 nmol/L) and with 0, 1, 10, or 100 nmol/L rapamycin. Triplicate samples were counted using a Coulter counter and were normalized as percentage of the control group. Cell viability was checked via Trypan blue staining.
Murine VSMCs, seeded 2×10^4 cells/well in a 6-well plate, were starved for 72 hrs in DMEM with 0.1% FBS. Rapamycin, leptin, or insulin in different concentrations indicated in the figure were incubated with VSMCs in DMEM with 0.1% of FBS for 72 hrs. Triplicate samples were counted via a Coulter counter. Cell viability was checked via Trypan blue staining. […] In panel C, VSMCs were exposed to U0126, a specific MEK1/2 inhibitor, or LY294002, a specific PI3K inhibitor.
Primary VSMC were isolated from aortic explants of WT, ob/ob, or db/db mice (46). VSMC proliferation was determined using the Cell Titre Aqueous One Solution Proliferation Assay (Promega, Madison, Wis.). Migration to PDGF-BB was assessed in a modified Boyden chamber assay (47).

Another assay deals with Akt phosphorylation. In words: Immunoblot of Akt phosphorylation in VSMC. The following applies: Example 2; rapamycin; leptin 100 ng/ml. The assay is classed as cell-based, mouse. How it is done: as §1, §2, §3
(Immunoblotting shows a protein as a band on a membrane.)

The subject of assay [3] is murine femoral artery wire injury model (neointimal hyperplasia). In words: Femoral artery wire injury model, morphometry of neointimal formation. The assay is classed as in vivo, mouse. Details: Lumen / Media / Intima / TVA (total vessel area): unit not given here. To be noted: for decrease of neointimal formation compared to vehicle: absence of leptin; for I/M (intima:media ratio) / Intima / Lumen / Media / TVA (total vessel area): mean ± SD. From the text:
Animal Models and Drug Treatments. Wild type C57BL/6J background mice and mice deficient for leptin (C57BL/6J-Lepob; ob/ob) or the leptin receptor (C57BL/6J-m+/+Lepdb; db/db) were purchased from Charles Jackson Laboratories, Maine. Mice were obtained at ages 6-8 weeks old and average weight 15 g. Animals were fed standard rodent chow and tap water ad libitum. Procedures and animal care were approved by the Institutional Animal Care and Use Committee. Mice were subjected to femoral artery wire injury or sham injury described below 24 hr prior to starting pharmacological treatments. Sirolimus was administered by intraperitoneal injection once per day for 14 days as a suspension in 0.2% sodium carboxymethyl cellulose and 0.25% polysorbate-80; duplicate experiments were accomplished with 0.5% DMSO. Leptin or LY294002 was administered by intraperitoneal injection once per day for 14 days as a suspension in PBS. Plasma leptin levels were measured at baseline, 3, 6, and 10 hr after leptin injection using an ELISA assay (R&D). Leptin plus the vehicle used for both sirolimus and LY294002 was used as the control group for the treatment groups with sirolimus and LY294002. After the 2-week treatment, animals were processed for femoral artery morphometry.
Femoral Artery Injury Model. Endoluminal injury of bilateral femoral arteries was performed according to the method of Roque et al. with minor modification 27. […] Briefly, to denude and dilate femoral arteries, a 0.014″ angioplasty guidewire (Guidant) was passed endoluminally 3 times to the level of the aortic bifurcation. A sham protocol was performed where the arteries underwent dissection, clamping, and ligature without passage of the guidewire.
Computer-aided quantitative morphometry to measure luminal, medial, intimal, and vessel areas were performed as previously described 27 with minor modification. Mice were euthanized via CO2 asphyxiation prior to en bloc excision of hind limbs. Briefly, multiple segments of the common femoral artery at the level of injury were fixed in 10% Zinc Formalin, embedded in paraffin, sectioned at […] thickness, and subjected to Elastic-Van Gieson staining at a Columbia University Core Histology facility. In many cases, arteries underwent immunohistochemical staining for smooth muscle a-actin to highlight the media and neointima. Photomicrographs were captured on Adobe Photoshop 7.0 and transferred to Scion Image software for quantitative analysis. Specimens were analyzed by two independent operators blinded to the treatment groups. Microsoft Excel software was used to calculate the RNI values from I/M ratios in the absence and presence of pharmacological inhibitors, as detailed in the text.
Surgical Procedures: The mouse femoral artery wire injury model of was used with minor modifications (Roque M, et al., Arterioscler Thromb Vasc Biol, 2000, 20(2):335-42). Briefly, forty-two male mice were studied. Endoluminal injury to the common femoral artery was produced by either 3 passages of a 0.014″ diameter angioplasty guidewire (Guidant, Santa Clara, Calif.). […] While being viewed under a surgical microscope, a groin incision was made and the femoral artery was isolated and temporarily clamped distal to the inguinal ligament. An arteriotomy was performed and the guidewire was passed 3 times to the level of the aortic bifurcation. The artery was then ligated proximal to the arteriotomy. A sham protocol was carried out on the contralateral side where the arteries underwent dissection, temporary clamping, and ligature, without passage of the wire. The formation of the neointima was confirmed in this model as being comprised mainly of VSMCs through immunohistochemical staining of representative sections for α-smooth muscle actin via a commercial kit (Sigma).
For all treatment protocols, rapamycin was administered by intraperitoneal injection once per day, for 14 days, as a suspension in 0.2% sodium carboxymethyl cellulose and 0.25% polysorbate-80. […]

The subject of assay [4] is wire-injured femoral artery of hyperglycemic (STZ) mice. In words: Femoral artery wire injury in streptozotocin-induced hyperglycemic mice. Format: in vivo, mouse.
Description: For the studies carried out in hyperglycemic mice, animals received an intraperitoneal injection of 60 mg/kg/d for 5 days of streptozotocin (STZ) in 0.05 mol/L citrate buffer. Surgery was performed 3 days following the final injection. Blood glucose levels were measured prior to injury (representing baseline levels), at time of injury, at euthanasia, and as needed during insulin administration with the OneTouch SureStep® Blood glucose monitoring system (Lifescan, Inc., Milipitas, Calif.). Only animals with blood glucose concentrations >300 mg/dL were included in this study.
Insulin (12-26 U/kg) was administered via an intraperitoneal route twice per day, for 14 days, according to blood glucose measurements.
Morphometry: Mice were euthanized via CO2 asphyxiation and were perfused with 10% Zinc Formalin through the left ventricle at physiological pressure (100 mm Hg). Tissues were excised and fixed overnight in 10% Zinc Formalin, embedded in paraffin, and sectioned at 5 μm thickness. Multiple level sections were cut at 100 pm intervals. For morphometry, tissues were stained with elastic van Gieson stain. Using computer aided morphometry (Scion Image), luminal, medial, intimal, and vessel area, and the lengths of the internal and external elastic laminae were measured as previously described (Roque M, et al., Arterioscler Thromb Vasc Biol, 2000, 20(2):335-42) in a blinded manner. […]
Where [5] appears, read: wire injury + leptin 0.4 mg/kg, SRL 1 mg/kg/d i.p. 14 days.
[6] abbreviates: wire injury + leptin 0.4 mg/kg, SRL 4 mg/kg/d i.p. 14 days.
[7] abbreviates: wire injury + leptin 0.4 mg/kg, SRL 9 mg/kg/d i.p. 14 days.
Setting [8] is: wire injury, SRL 1 mg/kg/d i.p. 14 days, no leptin.
[9] abbreviates: wire injury, SRL 4 mg/kg/d i.p. 14 days, no leptin.
Setting [10] is: wire injury, SRL 9 mg/kg/d i.p. 14 days, no leptin.

Consider `N#CC(=C(/N)Sc1ccccc1N)/C(C#N)=C(\N)Sc1ccccc1N` [U0126], for which the “leptin-stimulated phosphorylation of MAPK” value in assay [1] (Example 1, data not shown) was “prevented”. Also, the “leptin-stimulated phosphorylation of MAPK” value in assay [1] (Example 5, U0126 10 μM) was “prevented”. Also, in assay [2], the “VSMC proliferation induced by leptin and insulin” value is on record as “weak inhibition; also recorded: not inhibited”; the “effect on leptin-induced VSMC proliferation” value is on record as “did not significantly alter”; the “effect on leptin-induced proliferation of murine VSMC” value is on record as “did not significantly alter”.

As to `CO[C@H]1C[C@@H]2CC[C@@H](C)[C@@](O)(O2)C(=O)C(=O)N2CCCC[C@H]2C(=O)O[C@H]([C@H](C)C[C@@H]2CC[C@@H](O)[C@H](OC)C2)CC(=O)[C@H](C)/C=C(\C)[C@@H](O)[C@@H](OC)C(=O)[C@H](C)C[C@H](C)/C=C/C=C/C=C/1C` [sirolimus, rapamycin], the “inhibition of leptin-stimulated phosphorylation of Akt” value with Akt phosphorylation is reported as “did not inhibit”. In addition, the “inhibition of leptin-stimulated phosphorylation of ERK1/2” value in assay [1] (Example 2, rapamycin, leptin 100 ng/ml) is listed as “did not inhibit”. Also, the “decrease of neointimal formation compared to vehicle” value in assay [3] (sirolimus 1 mg/kg/d) was around 2 fold; in assay [3] (sirolimus 4 mg/kg/d) it was around 5 fold; in assay [3] (sirolimus 9 mg/kg/d), ~5 fold and ~6 fold. Further, the “relative neointimal inhibition (RNI)” value in assay [3] (sirolimus 1 mg/kg/d, in the presence of leptin 0.4 mg/kg) came out at 0.35; in assay [3] (sirolimus 1 mg/kg/d, without leptin, RNI 1 = total inhibition) it was 0.51; in assay [3] (sirolimus 4 mg/kg/d, in the presence of leptin 0.4 mg/kg), 0.67; in assay [3] (sirolimus 4 mg/kg/d, without leptin), 0.81; in assay [3] (sirolimus 9 mg/kg/d, in the presence of leptin 0.4 mg/kg), 0.97; in assay [3] (sirolimus 9 mg/kg/d, without leptin), 0.85. Also, the “I/M (intima:media ratio)” value stood at 1.269 ± 0.254 in assay [3] (setting [5]); 0.654 ± 0.172 in assay [3] (setting [6]); 0.061 ± 0.015 in assay [3] (setting [7]); 0.334 ± 0.043 in assay [3] (setting [8]); 0.121 ± 0.027 in assay [3] (setting [9]); 0.094 ± 0.037 in assay [3] (setting [10]). The Intima in assay [3] (setting [5]) is 0.024 ± 0.005; in assay [3] (setting [6]), 0.009 ± 0.001; in assay [3] (setting [7]), 0.001 ± 0.000; in assay [3] (setting [8]), 0.005 ± 0.001; in assay [3] (setting [9]), 0.001 ± 0.000; in assay [3] (setting [10]) it was 0.001 ± 0.000. In addition, the Lumen in assay [3] (setting [5]) is listed as 0.010 ± 0.002; in assay [3] (setting [6]), 0.012 ± 0.004; in assay [3] (setting [7]), 0.014 ± 0.002; in assay [3] (setting [8]), 0.012 ± .003; in assay [3] (setting [9]) it was 0.012 ± 0.005; in assay [3] (setting [10]), 0.015 ± 0.002. Also, the Media is listed as 0.019 ± 0.001 in assay [3] (setting [5]); 0.015 ± 0.002 in assay [3] (setting [6]); 0.017 ± 0.003 in assay [3] (setting [7]); 0.014 ± 0.001 in assay [3] (setting [8]); 0.015 ± 0.003 in assay [3] (setting [9]); 0.015 ± 0.002 in assay [3] (setting [10]). Moreover, the “TVA (total vessel area)” value in assay [3] (setting [5]) is on record as 0.056 ± 0.007; in assay [3] (setting [6]) it was 0.035 ± 0.006; in assay [3] (setting [7]), 0.031 ± 0.004; in assay [3] (setting [8]) it was 0.029 ± 0.003; in assay [3] (setting [9]), 0.028 ± 0.006; in assay [3] (setting [10]), 0.030 ± 0.004.

Turning to “Insulin: insulin purchased from Calbiochem”, the blood glucose levels entry in assay [4] (STZ mice, insulin 12-26 U/kg twice per day) was “reduce blood glucose levels to normal levels”. For the same compound, the “intima:media ratio” value in assay [4] (STZ+INS, insulin 12-26 U/kg i.p. twice per day 14 days, p<0.01) is reported as “significant increase”. The VSMC proliferation entry in assay [2] (insulin 10 or 100 nmol/L, 72 hours) was “induced a dose dependent increase in cell proliferation”.
